From patent publication US10875871B2, “Photosensitizer” (Tampereen Korkeakoulusäätiö sr, priority 2016, dated 2020)
Entries after “also recorded” stand apart in the source; their conditions may differ.

Key:
[1] = Leeching test of dyed paper in PBS buffer; assay type: physicochemical
Method: Stability of the dye Pc4 against was tested with PBS buffer pH 7.2. The absorbance and emission of PBS buffer incubated with dye papers were measured for checking the leeching (FIGS. 9a and b). […] Absorbance and emission of PBS buffer from each vial was measured after 1 h to check the leeching of dyes from papers.

[2] = tested on: A. baylyi ADP1; assay: Colony forming unit (CFU) method, solar simulator; assay type: cell-based, Acinetobacter baylyi; details: for Colony counts after incubation / CFU/ml / Colony counts after incubation (Average) / Colony counts after incubation (Duplicate): Acinetobacter baylyi
Method: (§1) The antimicrobial efficiency of the dye was confirmed by CFU method using microbes E. coli MG1655 (E. coli Genetic Resources at Yale) and A. baylyi ADP1 (ATCC 33305). […] The microplate was illuminated in the solar simulator for 1 hour. UV-IR radiations were cut off using a combination of KG3 band pass filter (315-750 nm transmittance) and ? c-17 yellow filter (transmittance >485 nm). Similarly, light control samples were prepared by depositing microbial medium over dyed and un-dyed samples by covering microplate with aluminum foil for 1 h at room temperature. After 1 h of illumination or incubation, the microbes were extracted with LB medium (10 g/l tryptone, 5 g/l yeast extract, 5 g/l NaCl) (975 μl) and serial dilutions were made from each extract. The dilutions were then plated on LA agar plates and incubated at 30° C. overnight. The number of colonies grown on the agar plate was counted and CFUs per milliliter were calculated from it.

[3] = tested on: Escherichia coli (XL1-Blue) carrying plasmid pBAV1C-T5-lux; assay: Screening test with bioluminescent E. coli on dyed filter paper discs; assay type: cell-based; details: dyed filter paper discs on LA agar, 1 hour illumination, 18 mWcm−2
Method: (§2) The efficiency of dyes (Pc1, Pc2, Pc3, Pc4) was screened by conducting antimicrobial test with bioluminescent bacterial strains Escherichia coli (XL1-Blue, Stratagene, USA) and Acinetobacter baylyi ADP1 (DSM 24193) carrying plasmid pBAV1C-T5-lux (the plasmid is chloramphenicol resistance derivate of the pBAV1K-T5-lux plasmid (Addgene #55800). The filter papers (12.25 cm^2) were soaked in respective dye solution (0.9 mg dye in 200 μl solvent) and allowed to dry on it. After drying, three circular discs (0.5 cm diameter) were cut from each filter paper and pasted on the LA agar (15 g/l agar, 10 g/l tryptone, 5 g/l yeast extract, 5 g/l NaCl) gel plate in such a way that each row corresponds to each dye. A circular dark screen of 0.3 cm height with a square hole in the center was placed over the agar plate. The square hole was cut in such a way that, one column which includes all the four dyes will be under the dark area of the screen while the two remaining columns will be inside the square hole. Two filters [KG3 band pass filter (315-750 nm transmittance) and ? […] Luminescence arising from the setup was recorded (Xenogen IVIS 100) before the microbial deposition on the filter paper discs. […] Luminescence of the agar plate before and after illumination of 1 hour was measured and the efficient dye which produces less luminescence was screened out from the set.

[4] = tested on: Acinetobacter baylyi ADP1 carrying plasmid pBAV1C-T5-lux; assay: Screening test with bioluminescent Acinetobacter baylyi on dyed filter paper discs; assay type: cell-based; details: dyed filter paper discs on LA agar, 1 hour illumination, 18 mWcm−2
Method: as §2

[5] = tested on: E. coli MG1655; assay: Colony forming unit (CFU) method, solar simulator; assay type: cell-based, Escherichia coli; details: for Colony counts after incubation / CFU/ml / Colony counts after incubation (Average) / Colony counts after incubation (Duplicate): E. Coli
Method: as §1

[6] = Pc4 filter paper-Dark 1 h, dilution factor 2.50E−03, 0.1 ml plated
[7] = Pc4 filter paper-Dark 1 h, dilution factor 2.50E−04, 0.1 ml plated
[8] = Pc4 filter paper-Dark 1 h, dilution factor 2.50E−05, 0.1 ml plated
[9] = Pc4 filter paper-Dark 1 h, dilution factor 2.50E−06, 0.1 ml plated
[10] = Pc4 filter paper-Dark 1 h, dilution factor 2.50E−07, 0.1 ml plated
[11] = illuminated Pc4 filter paper 1 h, dilution factor 2.50E−03, 0.1 ml plated
[12] = illuminated Pc4 filter paper 1 h, dilution factor 2.50E−04, 0.1 ml plated
[13] = illuminated Pc4 filter paper 1 h, dilution factor 2.50E−05, 0.1 ml plated
[14] = illuminated Pc4 filter paper 1 h, dilution factor 2.50E−06, 0.1 ml plated
[15] = illuminated Pc4 filter paper 1 h, dilution factor 2.50E−07, 0.1 ml plated
[16] = illuminated Pc4 filter paper 1 h, dilution factor 2.50E−02, 0.1 ml plated

{4,4′,4″,4″-(29H,31H-phthalocyanine-1(4),8(11),15(18),22(25)-tetrayl-κ 4N29,N30,N31,N32)tetrakis [1-methylpyridiniumato(2-)]}zinc(4+) tetraiodide [Pc4]
absorbance of PBS extract of dyed paper (leeching) ([1]; PBS pH 7.2, 20 h of incubation at room temperature): did not show any peak corresponding to the dye
emission of PBS extract of dyed paper (leeching) ([1]; PBS pH 7.2, excitation at 694 nm): very faint emission peak of negligible intensity
stability against leeching from paper ([1]; dye impregnated on filter paper, PBS buffer pH 7.2): exceptionally high stability against leeching; also recorded: does not release back to solution
microbial growth on plates ([2]; A. baylyi, illuminated Pc4 filter paper, 1 hour solar simulator): No microbial growth
Colony counts after incubation [2, 6]: Too many to count
Colony counts after incubation [2, 7]: Too many to count
CFU/ml [2, 8]: 7.06E+07 CFU/ml
Colony counts after incubation [2, 8]: 175
Colony counts after incubation (Average) [2, 8]: 176.5
Colony counts after incubation (Duplicate) [2, 8]: 178
CFU/ml [2, 9]: 5.20E+07 CFU/ml
Colony counts after incubation [2, 9]: 22
Colony counts after incubation (Average) [2, 9]: 13
Colony counts after incubation (Duplicate) [2, 9]: 4
CFU/ml [2, 10]: 1.40E+08 CFU/ml
Colony counts after incubation [2, 10]: 6
Colony counts after incubation (Average) [2, 10]: 3.5
Colony counts after incubation (Duplicate) [2, 10]: 1
CFU/ml [2, 11]: 0.00E+00 CFU/ml
Colony counts after incubation [2, 11]: 0
Colony counts after incubation (Average) [2, 11]: 0
Colony counts after incubation (Duplicate) [2, 11]: 0
CFU/ml [2, 12]: 0.00E+00 CFU/ml
Colony counts after incubation [2, 12]: 0
Colony counts after incubation (Average) [2, 12]: 0
Colony counts after incubation (Duplicate) [2, 12]: 0
CFU/ml [2, 13]: 0.00E+00 CFU/ml
Colony counts after incubation [2, 13]: 0
Colony counts after incubation (Average) [2, 13]: 0
Colony counts after incubation (Duplicate) [2, 13]: 0
CFU/ml [2, 14]: 0.00E+00 CFU/ml
Colony counts after incubation [2, 14]: 0
Colony counts after incubation (Average) [2, 14]: 0
Colony counts after incubation (Duplicate) [2, 14]: 0
CFU/ml [2, 15]: 0.00E+00 CFU/ml
Colony counts after incubation [2, 15]: 0
Colony counts after incubation (Average) [2, 15]: 0
Colony counts after incubation (Duplicate) [2, 15]: 0
efficiency of dye (luminescence after illumination) [3]: most efficient
efficiency of dye (luminescence after illumination) [4]: most efficient
Colony counts after incubation ([5]; Pc4 filter paper-Dark 1 h, dilution factor 2.50E−02, 0.1 ml plated): Too many to count
Colony counts after incubation [5, 6]: Too many to count
Colony counts after incubation [5, 7]: Too many to count
Colony counts after incubation [5, 8]: Too many to count
CFU/ml [5, 9]: 1.51E+09 CFU/ml
Colony counts after incubation [5, 9]: 327
Colony counts after incubation (Average) [5, 9]: 378
Colony counts after incubation (Duplicate) [5, 9]: 429
CFU/ml [5, 16]: 0.00E+00 CFU/ml
Colony counts after incubation [5, 16]: 0
Colony counts after incubation (Average) [5, 16]: 0
Colony counts after incubation (Duplicate) [5, 16]: 0
CFU/ml [5, 11]: 0.00E+00 CFU/ml
Colony counts after incubation [5, 11]: 0
Colony counts after incubation (Average) [5, 11]: 0
Colony counts after incubation (Duplicate) [5, 11]: 0
CFU/ml [5, 12]: 0.00E+00 CFU/ml
Colony counts after incubation [5, 12]: 0
Colony counts after incubation (Average) [5, 12]: 0
Colony counts after incubation (Duplicate) [5, 12]: 0
CFU/ml [5, 13]: 0.00E+00 CFU/ml
Colony counts after incubation [5, 13]: 0
Colony counts after incubation (Average) [5, 13]: 0
Colony counts after incubation (Duplicate) [5, 13]: 0
CFU/ml [5, 14]: 0.00E+00 CFU/ml
Colony counts after incubation [5, 14]: 0
Colony counts after incubation (Average) [5, 14]: 0
Colony counts after incubation (Duplicate) [5, 14]: 0
microbial growth on plates ([5]; E. coli, illuminated Pc4 filter paper, 1 hour solar simulator): No microbial growth
